The values that follow come from patent US8350027B2, “Dual-acting pyrazole antihypertensive agents” (Theravance, Inc., priority 2009, dated 2013).

A value given as a limit tells only on which side of the number the result lay.

One experiment deals with T1, NEP enzyme (Homo sapiens, UniProt P08473).
T1 construct: purchased R&D Systems, Minneapolis, Minn; 1182-ZN
The experiment is described as follows: NEP enzyme inhibition assay (fluorogenic peptide substrate). The settings on record: values given as lower bounds; * = prodrugs, may not exhibit NEP activity in an in vitro assay; read-out: NEP pIC50 (converted). The format is biochemical. In a few lines: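 Recombinant human NEP was run with Mca-BK2 (10 μM) at room temperature in Tris buffer with 1 μM Zn. Compounds (10 μM–20 pM, 12 points) were pre-equilibrated 10 min, then reacted 20 min and acid-stopped. Fluorescence ex 320/em 405 nm, one-site competition fit gives pIC50. Thiol compounds may be pre-treated with 400 μM TCEP.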

The target of a further experiment is T2, human AT1 receptor (Homo sapiens, UniProt P30556).
T2 construct: expressed in transfected cells; host or cells: CHO-K1
T2 sequence (P30556 1-359): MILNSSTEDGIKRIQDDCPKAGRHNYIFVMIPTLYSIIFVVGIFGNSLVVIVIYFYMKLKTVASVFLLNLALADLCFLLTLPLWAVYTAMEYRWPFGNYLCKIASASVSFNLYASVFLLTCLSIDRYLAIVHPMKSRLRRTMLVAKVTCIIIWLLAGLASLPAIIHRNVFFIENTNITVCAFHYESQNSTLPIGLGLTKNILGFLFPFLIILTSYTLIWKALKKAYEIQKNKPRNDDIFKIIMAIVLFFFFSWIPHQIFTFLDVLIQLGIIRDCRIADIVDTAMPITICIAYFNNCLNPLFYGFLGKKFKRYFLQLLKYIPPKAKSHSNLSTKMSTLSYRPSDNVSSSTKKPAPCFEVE
The experiment is described as follows: AT1 radioligand binding assay (displacement of [Eu]AngII). Conditions: membranes of CHO-K1 cells expressing cloned human AT1 receptor; values given as lower bounds; read-out: AT1 pKi (converted). A digest of the protocol:
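Membranes from CHO-K1 cells stably expressing cloned human AT1, 0.2 μg protein, in 50 mM Tris/HCl pH 7.5, 5 mM MgCl2, 0.025% BSA. Compounds displaced [Eu]AngII over 120 min in the dark at room temperature or 37° C; filter-bound TRF read. Nonspecific binding with 10 μM angiotensin II; IC50 converted to Ki via Cheng-Prusoff, reported as pKi.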

T1 sequence (P08473 52-750 limits assumed): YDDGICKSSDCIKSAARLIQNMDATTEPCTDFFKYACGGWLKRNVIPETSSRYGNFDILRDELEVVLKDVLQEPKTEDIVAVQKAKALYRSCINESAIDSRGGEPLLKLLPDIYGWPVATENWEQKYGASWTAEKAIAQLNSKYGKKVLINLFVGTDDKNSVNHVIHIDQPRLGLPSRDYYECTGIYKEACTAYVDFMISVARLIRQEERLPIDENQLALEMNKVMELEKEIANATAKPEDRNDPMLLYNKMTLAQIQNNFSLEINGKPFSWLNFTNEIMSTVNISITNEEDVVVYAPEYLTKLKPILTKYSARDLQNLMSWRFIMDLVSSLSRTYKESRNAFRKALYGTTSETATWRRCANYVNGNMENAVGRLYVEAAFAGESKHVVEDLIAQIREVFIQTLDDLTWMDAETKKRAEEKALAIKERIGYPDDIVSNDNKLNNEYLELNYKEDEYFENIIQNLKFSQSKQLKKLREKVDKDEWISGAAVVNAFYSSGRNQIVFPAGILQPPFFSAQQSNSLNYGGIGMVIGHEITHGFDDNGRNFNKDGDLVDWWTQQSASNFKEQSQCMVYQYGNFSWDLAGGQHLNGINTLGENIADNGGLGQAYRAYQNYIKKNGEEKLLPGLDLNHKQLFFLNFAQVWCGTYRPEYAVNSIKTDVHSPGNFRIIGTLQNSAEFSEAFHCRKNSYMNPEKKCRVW

As to `CCCc1cc(C(=O)N[C@@H](CC(=O)NO)Cc2ccccc2)nn1Cc1ccc(-c2ccccc2-c2nnn[nH]2)cc1` [Example 3-16, 5-Propyl-1-[2′-(1H-tetrazol-5-yl)-biphenyl-4-ylmethyl]-1H-pyrazole-3-carboxylic acid ((R)-1-hydroxycarbamoylmethyl-2-phenylethyl)amide], the IC50 at NEP enzyme was at most 100 nM. In addition, the Ki at human AT1 receptor is at most 10 nM.

In the case of `CCCc1cc(C(=O)N[C@@H](CC(=O)O)Cc2ccccc2F)nn1Cc1ccc(-c2ccccc2-c2nnn[nH]2)nc1` [Example 12, (R)-4-(2-Fluorophenyl)-3-[(5-propyl-1-{6-[2-(1H-tetrazol-5-yl)phenyl]pyridin-3-ylmethyl}-1H-pyrazole-3-carbonyl)amino]butyric acid], the IC50 at NEP enzyme was at most 100 nM. Also, the Ki at human AT1 receptor is at most 10 nM.

As to `CCCc1cc(C(=O)N[C@@H](CC(=O)O)Cc2ccccc2Cl)nn1Cc1ccc(-c2ccccc2S(=O)(=O)NC(C)=O)nc1` [Example 14-14, (R)-3-({1-[6-(2-Acetylsulfamoylphenyl)-pyridin-3-ylmethyl]-5-propyl-1H-pyrazole-3-carbonyl}-amino)-4-(2-chlorophenyl)butyric acid], on NEP enzyme, the IC50 is at most 1000 nM. On human AT1 receptor, the Ki was at most 10 nM.

Take `CCCc1cc(C(=O)N[C@@H](CC(=O)O)Cc2ccccc2Cl)nn1Cc1cnc(-c2ccccc2S(=O)(=O)NC(C)=O)cn1` [Example 17-6, (R)-3-({1-[5-(2-Acetylsulfamoyl-phenyl)-pyrazin-2-ylmethyl]-5-propyl-1H-pyrazole-3-carbonyl}amino)-4-(2-chloro-phenyl)butyric acid]: the IC50 at NEP enzyme is at most 1000 nM. Moreover, the Ki on human AT1 receptor was at most 10 nM.

`CCCc1cc(C(=O)N[C@H](Cc2ccccc2)[C@@H](O)C(=O)NO)nn1Cc1ccc(-c2ccccc2-c2nnn[nH]2)cc1` [Example 3-17, 1-((2′-(1H-tetrazol-5-yl)biphenyl-4-yl)methyl)-N-((2R,3R)-3-hydroxy-4-(hydroxyamino)-4-oxo-1-phenylbutan-2-yl)-5-propyl-1H-pyrazole-3-carboxamide]: the IC50 on NEP enzyme is at most 100 nM. Also, at human AT1 receptor, the Ki was at most 10 nM.

For the compound `CCCc1cc(C(=O)N[C@H](Cc2ccccc2)[C@@H](O)C(=O)O)nn1Cc1ccc(-c2ccccc2-c2nnn[nH]2)cc1` [Example 1, (2R,3R)-3-(1-((2′-(1H-tetrazol-5-yl)biphenyl-4-yl)methyl)-5-propyl-1H-pyrazole-3-carboxamido)-2-hydroxy-4-phenylbutanoic Acid], at NEP enzyme, the IC50 was at most 1000 nM. For the same compound, on human AT1 receptor, the Ki was at most 10 nM.

As to `CCCc1cc(C(=O)N[C@@H](CS)Cc2ccccc2)nn1Cc1ccc(-c2ccccc2S(=O)(=O)NC(C)=O)cc1` [Example 6-5, 1-(2′-Acetylsulfamoylbiphenyl-4-ylmethyl)-5-propyl-1H-pyrazole-3-carboxylic acid ((R)-1-benzyl-2-mercaptoethyl)amide], the IC50 on NEP enzyme was at most 100 nM. In addition, the Ki at human AT1 receptor was at most 10 nM.

Regarding `CCCc1cc(C(=O)N[C@@H](CS)Cc2ccccc2)nn1Cc1ccc(-c2ccccc2-c2nc(=O)o[nH]2)cc1` [Example 16-1, 1-[2′-(5-Oxo-2,5-dihydro-[1,2,4]oxadiazol-3-yl)biphenyl-4-ylmethyl]-5-propyl-1H-pyrazole-3-carboxylic acid ((R)-1-benzyl-2-mercaptoethyl)amide], the IC50 at NEP enzyme was at most 100 nM. Also, the Ki at human AT1 receptor is at most 10 nM.

`CCCCc1cc(C(=O)N[C@@H](CS)Cc2ccccc2)nn1Cc1ccc(-c2ccccc2C(=O)O)cc1F` [Example 9-4, 4′-[3-((R)-1-Benzyl-2-mercaptoethylcarbamoyl)-5-butylpyrazol-1-ylmethyl]-3′-fluorobiphenyl-2-carboxylic acid]: the IC50 at NEP enzyme was at most 100 nM. The Ki at human AT1 receptor was at most 100 nM.

With `CCCc1cc(C(=O)N[C@H](Cc2ccccc2Cl)[C@@H](O)C(=O)O)nn1Cc1ccc(-c2ccccc2-c2nnn[nH]2)cc1` [Example 3-22, (2R,3R)-3-(1-((2′-(1H-tetrazol-5-yl)biphenyl-4-yl)methyl)-5-propyl-1H-pyrazole-3-carboxamido)-4-(2-chlorophenyl)-2-hydroxybutanoic acid], at NEP enzyme, the IC50 is at most 100 nM. The Ki on human AT1 receptor is at most 100 nM.

For the compound `CCCc1cc(C(=O)N[C@@H](CC(=O)O)Cc2ccccc2)nn1Cc1cnc(-c2ccccc2S(=O)(=O)NC(C)=O)cn1` [Example 17-4, (R)-3-({1-[5-(2-Acetylsulfamoylphenyl)pyrazin-2-ylmethyl]-5-propyl-1H-pyrazole-3-carbonyl}amino)-4-phenylbutyric acid], the IC50 on NEP enzyme was at most 1000 nM. Besides, the Ki at human AT1 receptor is at most 10 nM.

Turning to `CCOc1cc(C(=O)N[C@@H](CS)Cc2ccccc2)nn1Cc1ccc(-c2ccccc2-c2nnn[nH]2)cc1F` [Example 3-1, 5-Ethoxy-1-[3-fluoro-2′-(1H-tetrazol-5-yl)biphenyl-4-ylmethyl]-1H-pyrazole-3-carboxylic acid ((R)-1-benzyl-2-mercaptoethyl)amide], the IC50 at NEP enzyme was at most 100 nM. In addition, at human AT1 receptor, the Ki was at most 10 nM.

Consider `CCCc1cc(C(=O)N[C@H](Cc2ccccc2)[C@@H](O)C(=O)O)nn1Cc1ccc(-c2ccccc2S(=O)(=O)NC(=O)NC)cc1` [Example 7-11, (2R,3R)-2-hydroxy-3-(1-((2′-(N-(methylcarbamoyl)sulfamoyl)biphenyl-4-yl)methyl)-5-propyl-1H-pyrazole-3-carboxamido)-4-phenylbutanoic acid], for which the IC50 on NEP enzyme is at most 100 nM. For the same compound, the Ki at human AT1 receptor was at most 10 nM.

For the compound `CCOc1cc(C(=O)N[C@@H](CC(=O)O)Cc2ccccc2)nn1Cc1ccc(-c2ccccc2S(=O)(=O)NC(C)=O)cc1F` [Example 6-24, (R)-3-{[1-(2′-Acetylsulfamoyl-3-fluorobiphenyl-4-ylmethyl)-5-ethoxy-1H-pyrazole-3-carbonyl]amino}-4-phenylbutyric acid], the IC50 on NEP enzyme is at most 10000 nM. Besides, at human AT1 receptor, the Ki is at most 10 nM.

For `CCCc1cc(C(=O)N[C@@H](CS)CC(C)C)nn1Cc1ccc(-c2ccccc2-c2nnn[nH]2)cc1F` [Example 3-3, 1-[3-Fluoro-2′-(1H-tetrazol-5-yl)biphenyl-4-ylmethyl]-5-propyl-1H-pyrazole-3-carboxylic acid ((R)-1-mercaptomethyl-3-methylbutyl)amide], the IC50 on NEP enzyme was at most 100 nM. Further, the Ki at human AT1 receptor was at most 100 nM.

With `CCCc1cc(C(=O)N[C@H](Cc2ccccc2)[C@@H](O)C(=O)O)nn1Cc1ccc(-c2ccccc2S(=O)(=O)NC(=O)C(C)(C)N)cc1` [Example 7-19, (2R,3R)-3-({1-[2′-(2-Amino-2-methylpropionylsulfamoyl)biphenyl-4-ylmethyl]-5-propyl-1H-pyrazole-3-carbonyl}amino)-2-hydroxy-4-phenylbutyric acid], the IC50 at NEP enzyme is at most 1000 nM. Besides, the Ki at human AT1 receptor was at most 100 nM.

For the compound `CCCc1cc(C(=O)N[C@H](Cc2ccccc2)[C@@H](O)C(=O)O)nn1Cc1ccc(-c2ccccc2S(=O)(=O)NC(=O)N2CCCC2)cc1` [Example 7-21, (2R,3R)-2-Hydroxy-4-phenyl-3-[(5-propyl-1-{2′-[(pyrrolidine-1-carbonyl)sulfamoyl]biphenyl-4-ylmethyl}-1H-pyrazole-3-carbonyl)amino]butyric acid], the IC50 at NEP enzyme is at most 100 nM. For the same compound, the Ki on human AT1 receptor is at most 100 nM.

Regarding `CCCc1cc(C(=O)N[C@@H](CC(=O)O)Cc2ccccc2C(F)(F)F)nn1Cc1ccc(-c2ccccc2-c2nnn[nH]2)cc1` [Example 3-36, (R)-3-({5-Propyl-1-[2′-(1H-tetrazol-5-yl)-biphenyl-4-ylmethyl]-1H-pyrazole-3-carbonyl}amino)-4-(2-trifluoromethylphenyl)butyric acid], the IC50 at NEP enzyme was at most 1000 nM. Besides, the Ki at human AT1 receptor was at most 100 nM.
